Patent publication US8481724B2, “Synthesis of 2,4-pyrimidinediamines” (Rigel Pharmaceuticals, Inc., priority 2009, dated 2013)

How the values were obtained:
[1] = water solubility in aqueous buffer under physiological conditions; type: physicochemical; conditions: prodrug versus parent compound of formula IV, same conditions
[2] = cited from earlier work

solubility relative to compound of formula IV (times greater) [1] | SMILES | solubility ([2]; aqueous buffer under physiological conditions (same conditions as formula IV)) | water solubility ([2]; aqueous buffer under physiological conditions)
approximately 2000 times | COc1cc(Nc2ncc(F)c(Nc3ccc4c(n3)N(COP(=O)(O)O)C(=O)C(C)(C)O4)n2)cc(OC)c1OC [compound of formula II] | greater than 5 mg/mL | 
 | COc1cc(Nc2ncc(F)c(Nc3ccc4c(n3)NC(=O)C(C)(C)O4)n2)cc(OC)c1OC [compound of formula IV] |  | 1 to 2 µg/mL
